Experimental data from patent publication US8685928B2, “Antagonists of MUC1” (Dana-Farber Cancer Institute, Inc., priority 2010, dated 2014).
Positions of bridges follow the written chain, without caps; N, C: chain ends. Non-standard residues stand in square brackets, D forms with d. Residues, ends and D or L forms follow the SMILES beside them.

Target: adrenergic α1B receptor (Homo sapiens, UniProt P35368)
Test: biochemical

Sequence of adrenergic α1B receptor (P35368 whole entry): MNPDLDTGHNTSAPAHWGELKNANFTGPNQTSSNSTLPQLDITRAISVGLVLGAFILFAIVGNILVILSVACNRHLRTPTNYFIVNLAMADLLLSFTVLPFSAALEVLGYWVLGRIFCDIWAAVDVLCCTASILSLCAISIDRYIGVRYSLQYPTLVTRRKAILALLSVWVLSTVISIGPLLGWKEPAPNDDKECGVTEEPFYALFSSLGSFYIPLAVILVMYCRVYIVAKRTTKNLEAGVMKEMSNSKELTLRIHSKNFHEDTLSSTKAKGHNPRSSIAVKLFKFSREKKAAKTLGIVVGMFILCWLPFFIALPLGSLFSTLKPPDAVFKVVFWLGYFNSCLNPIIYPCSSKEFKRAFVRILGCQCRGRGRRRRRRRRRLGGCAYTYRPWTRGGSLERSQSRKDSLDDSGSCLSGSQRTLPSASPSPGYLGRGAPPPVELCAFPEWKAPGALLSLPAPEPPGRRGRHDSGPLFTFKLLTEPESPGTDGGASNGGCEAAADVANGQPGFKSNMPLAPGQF

Compound `CC(=O)N[C@H](CCCNC(=N)N)C(=O)N[C@H](CCCNC(=N)N)C(=O)N[C@H](CCCNC(=N)N)C(=O)N[C@H](CCCNC(=N)N)C(=O)N[C@H](CCCNC(=N)N)C(=O)N[C@H](CCCNC(=N)N)C(=O)N[C@H](CCCNC(=N)N)C(=O)N[C@H](CCCNC(=N)N)C(=O)N[C@H](CCCNC(=N)N)C(=O)N[C@@H]1CSSC[C@H](C(=O)N[C@H](CCCNC(=N)N)C(=O)N[C@H](CCCNC(=N)N)C(=O)N[C@H](CCCCN)C(=O)N[C@H](CC(N)=O)C(N)=O)NC(=O)[C@@H](CCC(N)=O)NC1=O` [GO-203-2c, Ac-(D)Arg-(D)Arg-(D)Arg-(D)Arg-(D)Arg-(D)Arg-(D)Arg-(D)Arg-(D)Arg-(D)Cys-(D)Gln-(D)Cys-(D)Arg-(D)Arg-(D)Lys-(D)Asn-NH2 disulfide] (Ac-[dR][dR][dR][dR][dR][dR][dR][dR][dR][dC][dQ][dC][dR][dR][dK][dN]-NH2; disulfide 10-12) has an IC50 of 3 to 8 µM.
